Assay results published in patent US5466687A, “Arylidene-1-azacycloalkanes and arylalkyl-1-azacyclo-alkanes, their salts, medicaments containing these compounds and their use, and processes for their preparation” (priority 1992, dated 1995).
Converted amounts (≈) assume the structure as drawn.

What was measured:
[1] = system: human hepatoma cells (HEP-G2); assay: Inhibition of 14C-acetate incorporation in digitonin-precipitatable steroids in HEP-G2 cells; type: cell-based; conditions: Homo sapiens; for percent change in 14C-acetate incorporation into sterols at 0.1 µM: HepG2, 10^-7 mol/l; for percent change in 14C-acetate incorporation into sterols at 0.01 µM: HepG2, 10^-8 mol/l
Experimental: I. Measurement of the inhibition of ^14 C-acetate incorporation in digitonin-precipitatable steroids:
After 3 days of culture, human hepatoma cells (HEP-G2) are stimulated for 16 hours in cholesterol-free medium. The substances to be tested (dissolved in dimethyl sulphoxide, final concentration 0.1%) are added during this stimulation phase. After the addition of 200 μmol/l of 2-^14 C-acetate, the mixture is then reincubated at 37° C. for a further 2 hours.
The cells are detached and the sterol esters are hydrolyzed and, after extraction, sterols are precipitated using digitonin. The ^14 C-acetate incorporated into digitonin-precipitatable sterols is determined by scintillation measurement.
The investigation of the inhibitory action was carried out at test concentrations of 10^-7 mol/l and 10^-8 mol/l. The test results of the following compounds A to AG of the general formula I are indicated at these test concentrations by way of example: […]

[2] = system: 2,3-epoxysqualene-lanosterol cyclase; assay: In vivo effect in the rat after oral administration: 2,3-epoxysqualene level in plasma; parameters: species or system rat (male Wistar); conditions: 5 hours after administration
Experimental: II. Measurement of the in vivo effect in the rat after oral administration
The inhibition of the enzyme 2,3-epoxysqualene-lanosterol cyclase causes an increase in the 2,3-epoxy-squalene level in the liver and plasma. Therefore, the amount of 2,3-epoxysqualene formed therefore serves as a direct measure of the effectiveness in the whole animal. The determination is carried out by the following method:
The test substance suspended in 1.5% strength aqueous methylcellulose is administered via stomach tube to male Wistar rats (160-190 g body weight). 5 hours after administration, blood is obtained retroorbitally from the venous plexus. Plasma is extracted by the method of Bligh and Dyer (Canad. J. Biochem. Physiol. 37, 912, [1959]), purified by means of a precolumn and then analyzed by means of HPLC. The peaks obtained are identified and quantified by means of calibration substances. An internal standard is used to check the reproducibility of the results.
The investigations were carried out using concentrations of 0.1 and 1.0 mg/kg. The results for the above mentioned substances A to M are compiled in the following Table by way of example: […]

[3] = system: normolipaemic golden hamster; assay: Lipid reduction in the normolipaemic golden hamster; type: in vivo; conditions: 12 days, vs control group
Experimental: III. Lipid reduction in the normolipaemic golden hamster
Male golden hamsters are fed ad lib with a cholesterol-free hamster diet for 12 days. The substance to be tested is admixed to the feed in concentrations of 0.01 to 0.10%. At the end of the experimental period, the total cholesterol, the HDL fraction and also the VLDL+LDL fraction are determined by standard methods, a control group fed without test substance being used for comparison.
The hypolipidaemic activity of the above mentioned compound A was tested.

[4] = system: normolipaemic golden hamster; assay: Determination of the lithogenic index in the normolipaemic golden hamster; type: in vivo; conditions: 20 days
Experimental: IV. Determination of the lithogenic index in the normolipaemic golden hamster
The lithogenic index is a measure of susceptibility to gallstone formation and is defined as the […] in mol %. It was determined by the method of Carey and Small, described in J. Clin. Investig. 61, 998-1026 [1978]. The higher the lithogenic index, the higher the probability of gallstone formation. The determination of the lithogenic index was carried out as follows:
Male golden hamsters are fed ad lib with a cholesterol-free hamster diet for 20 days. The substance to be tested is admixed to the feed in concentrations of 0.01 to 0.1%. At the end of the experimental period, total cholesterol, the HDL fraction and also the VLDL+LDL fraction in the serum, and the bile acids, the cholesterol and the phospholipids in the bile are determined by standard methods.
The compound A described above was tested. The percentage decrease in the lithogenic index was determined relative to the control.

[5] = system: Normal human epidermal keratinocytes (NHEK); assay: Inhibition of cell proliferation of keratinocytes; type: cell-based; conditions: 48 hours, read-out: percentage decrease in cell numbers
Experimental: V. Inhibition of cell proliferation
Normal human epidermal keratinocytes (NHEK) are cultured under sterile conditions in keratinocyte growth medium (Gibco) in a humidified, 5% CO2 -containing atmosphere. Cells of the third passage are inoculated at a density of 12,000 cells/ml.
After 24 hours, the test substance is added to the medium and the number of cells is determined after a further 48 hours. The results were calculated in comparison to a control and are indicated as the percentage decrease in cell numbers.
The proliferation-inhibiting action of the above mentioned compound A was tested in comparison to simvastatin at concentrations of 10^-6 to 10^-10 mol/l.

[6] = Toxic effects in the mouse after oral administration; type: in vivo; conditions: oral 100 mg/kg, once daily for 4 days
Text: The compounds A to I appeared to be non-toxic at the curative dose.

[7] = system: Aspergillus niger ATCC 16404; assay: Fungistatic activity, serial dilution test; type: cell-based; conditions: ATCC16404, 2 to 4 days at 26° C.
Experimental: (§1) VI. Determination of fungistatic activity The fungistatic activity was determined by means of the serial dilution test (microtitre system). Sabouraud broth was used as the nutrient medium. The inoculum was approximately 10^4 to 10^5 CFU/ml (CFU=colony-forming units); the incubation time was 2 to 4 days at 26° C. The minimum inhibitory concentration (MIC), i.e. the lowest concentration which no longer allowed visible growth, and the lowest concentration at which a decrease in growth of the test microorganism occurred in comparison with a control were determined. The above mentioned compound I was tested.

[8] = system: Candida albicans ATCC 10231; assay: Fungistatic activity, serial dilution test; type: cell-based; conditions: ATCC10231, 2 to 4 days at 26° C.
Experimental: as §1

[9] = system: Penicillium notatum CBS 19746; assay: Fungistatic activity, serial dilution test; type: cell-based; conditions: Penicillium chrysogenum, CBS19746, 2 to 4 days at 26° C.
Experimental: as §1

Rhodotorula rubra 49 = assay: Fungistatic activity, serial dilution test; type: cell-based; conditions: 2 to 4 days at 26° C.
Experimental: as §1

[10] = system: Sacc. carlsbergensis ATCC 9080; assay: Fungistatic activity, serial dilution test; type: cell-based; conditions: Saccharomyces pastorianus, ATCC9080, 2 to 4 days at 26° C.
Experimental: as §1

[11] = system: Trichophyton mentagrophytes ATCC 9129; assay: Fungistatic activity, serial dilution test; type: cell-based; conditions: ATCC9129, 2 to 4 days at 26° C.
Experimental: as §1

smooth muscle cell = conditions: Cardiovasc. Drugs Ther. 5, Suppl. 3, 354 [1991]; cited from earlier work
laying hens = conditions: FASEB Journal 4, A 533 [1990]; cited from earlier work
[12] = cited from earlier work
[13] = J. Biol. Chemistry 265, 18075-18078 [1990]; cited from earlier work
[14] = read-out: Decrease in growth (lowest concentration)
[15] = Gut 31, 348-350 [1990], Z. Gastroenterol. 29, 242-245 [1991]

For `O=C(c1ccc(Cl)cc1)N1CCC(=Cc2ccc(C3=NCCO3)cc2)CC1` [A, 1-(4-chlorobenzoyl)-4-[4-(2-oxazolin-2-yl)benzylidene]piperidine], the percent change in 14C-acetate incorporation into sterols at 0.1 µM [1] was -81%, the percent change in 14C-acetate incorporation into sterols at 0.01 µM [1] was -58% and the “2,3-Epoxysqualene concentration in plasma (rat)” value (from here on “2,3-Epoxysqualene concentration”) ([2]; 0.1 mg/kg oral) was 0.71 µg/mL. The “2,3-Epoxysqualene concentration” value ([2]; 1.0 mg/kg oral) was 3.75 µg/mL, the HDL ([3]; 0.01% in feed) was -12.4% and the “Total Cholesterol” value ([3]; 0.01% in feed) was -19.8%. For the same molecule, the “VLDL + LDL” value ([3]; 0.01% in feed) was -25.0%, the HDL ([3]; 0.03% in feed) was -17.5% and the “Total Cholesterol” value ([3]; 0.03% in feed) was -26.3%. For the same molecule, the “VLDL + LDL” value ([3]; 0.03% in feed) was -31.2%, the HDL ([3]; 0.10% in feed) was -13.9% and the “Total Cholesterol” value ([3]; 0.10% in feed) was -25.8%. For the same molecule, the “VLDL + LDL” value ([3]; 0.10% in feed) was -36.6%, the “Lithogenic Index (percentage decrease relative to control)” value ([4]; 0.01% in feed) was -24% and the “Lithogenic Index (percentage decrease relative to control)” value ([4]; 0.03% in feed, n.s. = not significant) was -10%. The “Lithogenic Index (percentage decrease relative to control)” value ([4]; 0.1% in feed) was -28%, the inhibition at 1 µM ([5]; 10^-6 mol/l) was 72% and the inhibition at 0.1 µM ([5]; 10^-7 mol/l) was 73%. For the same molecule, the inhibition at 0.01 µM ([5]; 10^-8 mol/l) was 70%, the inhibition at 0.001 µM ([5]; 10^-9 mol/l) was 48% and the inhibition at 0.0001 µM ([5]; 10^-10 mol/l) was 16%. The “toxic effects in the mouse” value [6] was “no toxic effects”.
In the case of `O=C(c1ccc(Cl)cc1)N1CCC(Cc2ccc(C3=NCCO3)cc2)CC1` [I, 1-(4-chlorobenzoyl)-4-[4-(2-oxazolin-2-yl)benzyl]piperidine], the percent change in 14C-acetate incorporation into sterols at 0.1 µM [1] is reported as -89%, the percent change in 14C-acetate incorporation into sterols at 0.01 µM [1] is reported as -75% and the “2,3-Epoxysqualene concentration” value ([2]; 0.1 mg/kg oral) is reported as 3.41 µg/mL. For the same molecule, the “2,3-Epoxysqualene concentration” value ([2]; 1.0 mg/kg oral) was 8.41 µg/mL, the MIC [7] was > 1020 µg/mL and the minimal effective concentration [7, 14] was 128 µg/mL. The MIC [8] was 128 µg/mL (≈ 334 µM), the minimal effective concentration [8, 14] was 64 µg/mL and the MIC [9] was 128 µg/mL (≈ 334 µM). It also gave a minimal effective concentration [9, 14] of 64 µg/mL, an MIC (Rhodotorula rubra 49) of 128 µg/mL (≈ 334 µM) and a minimal effective concentration (Rhodotorula rubra 49; [14]) of 32 µg/mL. For the same molecule, the MIC [10] was 128 µg/mL (≈ 334 µM), the minimal effective concentration [10, 14] was 64 µg/mL and the MIC [11] was 512 µg/mL (≈ 1340 µM). For the same molecule, the “toxic effects in the mouse” value [6] was “no toxic effects”.
For `CC[C@H](C)C(=O)O[C@H]1C[C@@H](C)C=C2C=C[C@H](C)[C@H](CC[C@@H]3C[C@@H](O)CC(=O)O3)[C@H]21` [lovastatin], the “smooth muscle cell proliferation” value (smooth muscle cell) is given as “inhibition of smooth muscle cell proliferation”, the “cholesterol content of eggs” value (laying hens) is given as “lowering of the cholesterol content of eggs” and the “cholesterol concentration in the bile / lithogenic index” value [12, 15] is given as “can cause a reduction of the cholesterol concentration in the bile”. For the same molecule, the gallstone formation [12, 15] was “do not lead to increased gallstone formation” and the dissolution of gallstones ([12]; in particular in combination with ursodeoxycholic acid, Gastroenterology 102, A 319 [1992]) was “effectiveness”.
In the case of `CCN(CC)CCOc1ccc(C(O)(Cc2ccc(Cl)cc2)c2ccc(C)cc2)cc1` (centres unmarked) [triparanol], the “toxic effects leading to withdrawal from the market” value [13] is listed as “formation of cataracts, ichthyosis and alopecia”.
